Laboratory results: ChEMBL document CHEMBL1137894, “3-Thio-quinolinone maxi-K openers for the treatment of erectile dysfunction” (2004)

Legend:
[1] = tested on: Oocyte; test: Percentage opening of human Maxi-K channel in transfected oocyte cells at 20 uM; format: cell-based
[2] = species: Oryctolagus cuniculus; test: Percentage relaxation of phenylephrine-contracted rabbit corpus cavernosum tissue strips at concentration of 10 uM; format: functional
[3] = tested on: Oocyte; test: Percentage opening of human Maxi-K channel in transfected oocyte cells at 5 uM; format: cell-based
[4] = tested on: Oocyte; test: Percentage opening of human Maxi-K channel in transfected oocyte cells at 10 uM; format: cell-based

O=C(CCN1CCCC1)CSc1c(O)nc2ccc(C(F)(F)F)cc2c1-c1cc(Cl)ccc1O
Activity [1]: 335%
Relaxation [2]: 30%

CN1CCN(C(=O)CSc2c(O)nc3ccc(C(F)(F)F)cc3c2-c2cc(Cl)ccc2O)CC1
Activity [1]: 422%
Relaxation [2]: 14%

CN(C)CCN(C)CC(=O)Nc1ccc(Sc2c(O)nc3ccc(C(F)(F)F)cc3c2-c2cc(Cl)ccc2O)cc1
Activity [1]: 231%
Relaxation [2]: 16%

COc1ccc(Cl)cc1-c1c(Sc2ccc(NS(=O)(=O)N(C)C)cc2)c(O)nc2ccc(C(F)(F)F)cc12
Activity [3]: 114%

O=S(=O)(Nc1ccc(Sc2c(O)nc3ccc(C(F)(F)F)cc3c2-c2cc(Cl)ccc2O)cc1)C(F)(F)F
Activity [1]: 277%
Relaxation [2]: 32%

O=S(=O)(CCCN1CCOCC1)Nc1ccc(Sc2c(O)nc3ccc(C(F)(F)F)cc3c2-c2cc(Cl)ccc2O)cc1
Activity [1]: 354%
Relaxation [2]: 35%

COc1ccc(Cl)cc1-c1c(SCC(O)CN2CCC(O)CC2)c(O)nc2ccc(C(F)(F)F)cc12 (stereo not drawn)
Activity [1]: 125%

O=C(CCN1CCN(CCO)CC1)CSc1c(O)nc2ccc(C(F)(F)F)cc2c1-c1cc(Cl)ccc1O
Activity [1]: 241%

O=C(CCN1CCCCC1)CSc1c(O)nc2ccc(C(F)(F)F)cc2c1-c1cc(Cl)ccc1O
Activity [1]: 199%

O=C(CN1CCOCC1)Nc1ccc(Sc2c(O)nc3ccc(C(F)(F)F)cc3c2-c2cc(Cl)ccc2O)cc1
Relaxation [2]: 34%
Activity [4]: 296%

CN1CCN(CC(=O)Nc2ccc(Sc3c(O)nc4ccc(C(F)(F)F)cc4c3-c3cc(Cl)ccc3O)cc2)CC1
Activity [1]: 246%
Relaxation [2]: 19%

CCCS(=O)(=O)Nc1ccc(Sc2c(O)nc3ccc(C(F)(F)F)cc3c2-c2cc(Cl)ccc2O)cc1
Activity [3]: 255%

Oc1ccc(Cl)cc1-c1c(SCC(O)CN2CCSCC2)c(O)nc2ccc(C(F)(F)F)cc12 (stereo not drawn)
Activity [1]: 319%
Relaxation [2]: 48%

COc1ccc(Cl)cc1-c1c(Sc2ccc(NS(=O)(=O)C(F)(F)F)cc2)c(O)nc2ccc(C(F)(F)F)cc12
Activity [1]: 235%
Relaxation [2]: 21%

O=C(CCN1CCOCC1)Nc1ccc(Sc2c(O)nc3ccc(C(F)(F)F)cc3c2-c2cc(Cl)ccc2O)cc1
Activity [1]: 453%
Relaxation [2]: 22%

COc1ccc(Cl)cc1-c1c(SCC(O)CN2CCN(c3ncccn3)CC2)c(O)nc2ccc(C(F)(F)F)cc12 (stereo not drawn)
Activity [3]: 80%

OCCN1CCN(CC(O)CSc2c(O)nc3ccc(C(F)(F)F)cc3c2-c2cc(Cl)ccc2O)CC1 (stereo not drawn)
Activity [1]: 287%
Relaxation [2]: 44%

CN(CCCN1CCN(C)CC1)CCC(O)CSc1c(O)nc2ccc(C(F)(F)F)cc2c1-c1cc(Cl)ccc1O (stereo not drawn)
Activity [1]: 515%

Oc1ccc(Cl)cc1-c1c(SCC(O)CN2CCOCC2)c(O)nc2ccc(C(F)(F)F)cc12 (stereo not drawn)
Activity [1]: 292%
Relaxation [2]: 49%

CN1CCN(CCC(=O)Nc2ccc(Sc3c(O)nc4ccc(C(F)(F)F)cc4c3-c3cc(Cl)ccc3O)cc2)CC1
Activity [1]: 474%
Relaxation [2]: 30%

CN(C)S(=O)(=O)Nc1ccc(Sc2c(O)nc3ccc(C(F)(F)F)cc3c2-c2cc(Cl)ccc2O)cc1
Activity [3]: 222%

O=C(CSc1c(O)nc2ccc(C(F)(F)F)cc2c1-c1cc(Cl)ccc1O)N1CCN(CCOCCO)CC1
Activity [1]: 205%
Relaxation [2]: 17%

O=c1[nH]c2ccc(C(F)(F)F)cc2c(-c2cc(Cl)ccc2O)c1CCO [BMS-223131]
Activity [1]: 378%
Relaxation [2]: 83.7%

CN1CCN(CCC(=O)CSc2c(O)nc3ccc(C(F)(F)F)cc3c2-c2cc(Cl)ccc2O)CC1
Activity [1]: 550%

O=C(CCCN1CCCC1)Nc1ccc(Sc2c(O)nc3ccc(C(F)(F)F)cc3c2-c2cc(Cl)ccc2O)cc1
Activity [1]: 280%
Relaxation [2]: 36%

NC(=O)C1CCN(C(=O)CSc2c(O)nc3ccc(C(F)(F)F)cc3c2-c2cc(Cl)ccc2O)CC1
Activity [1]: 203%
Relaxation [2]: 67%

O=C(CSc1c(O)nc2ccc(C(F)(F)F)cc2c1-c1cc(Cl)ccc1O)N1CCN(CCO)CC1
Activity [1]: 151%
Relaxation [2]: 22%

COc1ccc(Cl)cc1-c1c(SCC(O)CN2CCN(C(C)=O)CC2)c(O)nc2ccc(C(F)(F)F)cc12 (stereo not drawn)
Activity [1]: 192%

CN(C)CCN1CCN(CC(O)CSc2c(O)nc3ccc(C(F)(F)F)cc3c2-c2cc(Cl)ccc2O)CC1 (stereo not drawn)
Activity [1]: 113%

O=C(CCN1CCC(N2CCCCC2)CC1)Nc1ccc(Sc2c(O)nc3ccc(C(F)(F)F)cc3c2-c2cc(Cl)ccc2O)cc1
Activity [1]: 255%
Relaxation [2]: 23%

CN(C)C1CCN(C(=O)CSc2c(O)nc3ccc(C(F)(F)F)cc3c2-c2cc(Cl)ccc2O)CC1
Activity [1]: 286%
Relaxation [2]: 35%

O=C(CN1CCC(N2CCCCC2)CC1)Nc1ccc(Sc2c(O)nc3ccc(C(F)(F)F)cc3c2-c2cc(Cl)ccc2O)cc1
Activity [1]: 283%
Relaxation [2]: 45%

O=C(CN1CCN(c2ccccn2)CC1)Nc1ccc(Sc2c(O)nc3ccc(C(F)(F)F)cc3c2-c2cc(Cl)ccc2O)cc1
Activity [3]: 116%
Relaxation [2]: 17%

CN(C)CCCN(C)CCC(=O)CSc1c(O)nc2ccc(C(F)(F)F)cc2c1-c1cc(Cl)ccc1O
Activity [1]: 178%

CCS(=O)(=O)Nc1ccc(Sc2c(O)nc3ccc(C(F)(F)F)cc3c2-c2cc(Cl)ccc2O)cc1
Activity [4]: 296%

CC(=O)N1CCN(CCCC(=O)CSc2c(O)nc3ccc(C(F)(F)F)cc3c2-c2cc(Cl)ccc2O)CC1
Activity [1]: 284%

CN1CCC(N(C)CCCC(=O)CSc2c(O)nc3ccc(C(F)(F)F)cc3c2-c2cc(Cl)ccc2O)C1 (stereo not drawn)
Activity [1]: 226%

COc1ccc(Cl)cc1-c1c(SCC(O)CN2CCC(C)CC2)c(O)nc2ccc(C(F)(F)F)cc12 (stereo not drawn)
Activity [1]: 115%

CN(C)C1CCN(CC(=O)Nc2ccc(Sc3c(O)nc4ccc(C(F)(F)F)cc4c3-c3cc(Cl)ccc3O)cc2)CC1
Activity [1]: 292%
Relaxation [2]: 19%

CC1CCN(CCCC(=O)CSc2c(O)nc3ccc(C(F)(F)F)cc3c2-c2cc(Cl)ccc2O)CC1
Activity [1]: 213%

Oc1ccc(Cl)cc1-c1c(SCC(O)CN2CCCC2)c(O)nc2ccc(C(F)(F)F)cc12 (stereo not drawn)
Activity [1]: 192%

O=C(CCCN1CCN(c2ccccn2)CC1)Nc1ccc(Sc2c(O)nc3ccc(C(F)(F)F)cc3c2-c2cc(Cl)ccc2O)cc1
Relaxation [2]: 37%
Activity [4]: 197%

COc1ccc(Cl)cc1-c1c(SCC(O)CN2CCSCC2)c(O)nc2ccc(C(F)(F)F)cc12 (stereo not drawn)
Activity [1]: 97%

CCN(CC)CC(O)CSc1c(O)nc2ccc(C(F)(F)F)cc2c1-c1cc(Cl)ccc1O (stereo not drawn)
Activity [1]: 192%
Relaxation [2]: 57%

CCCS(=O)(=O)Nc1ccc(Sc2c(O)nc3ccc(C(F)(F)F)cc3c2-c2cc(Cl)ccc2OC)cc1
Activity [3]: 95%

O=C(CCN1CCC(O)CC1)CSc1c(O)nc2ccc(C(F)(F)F)cc2c1-c1cc(Cl)ccc1O
Activity [1]: 235%

CCOC(=O)CN1CCN(C(=O)CSc2c(O)nc3ccc(C(F)(F)F)cc3c2-c2cc(Cl)ccc2O)CC1
Activity [1]: 281%
Relaxation [2]: 19%

O=C(CCN1CCCC1)Nc1ccc(Sc2c(O)nc3ccc(C(F)(F)F)cc3c2-c2cc(Cl)ccc2O)cc1
Activity [1]: 264%
Relaxation [2]: 35%

CC1CCCN(CCCC(=O)CSc2c(O)nc3ccc(C(F)(F)F)cc3c2-c2cc(Cl)ccc2O)C1 (stereo not drawn)
Activity [1]: 271%

CN(C)CCCN(C)CC(O)CSc1c(O)nc2ccc(C(F)(F)F)cc2c1-c1cc(Cl)ccc1O (stereo not drawn)
Activity [1]: 214%

O=C(CCN1CCN(c2ccccn2)CC1)Nc1ccc(Sc2c(O)nc3ccc(C(F)(F)F)cc3c2-c2cc(Cl)ccc2O)cc1
Relaxation [2]: 37%
Activity [4]: 169%

CN(C)CCN(C)CCC(=O)Nc1ccc(Sc2c(O)nc3ccc(C(F)(F)F)cc3c2-c2cc(Cl)ccc2O)cc1
Activity [1]: 489%
Relaxation [2]: 29%

O=S(=O)(CC(F)(F)F)Nc1ccc(Sc2c(O)nc3ccc(C(F)(F)F)cc3c2-c2cc(Cl)ccc2O)cc1
Activity [1]: 170%

O=C(CN1CCCC1)Nc1ccc(Sc2c(O)nc3ccc(C(F)(F)F)cc3c2-c2cc(Cl)ccc2O)cc1
Activity [1]: 291%
Relaxation [2]: 28%

O=C(CCCN1CCC(N2CCCCC2)CC1)CSc1c(O)nc2ccc(C(F)(F)F)cc2c1-c1cc(Cl)ccc1O
Activity [1]: 298%

COc1ccc(Cl)cc1-c1c(SCC(O)CN2CCN(C)CC2)c(O)nc2ccc(C(F)(F)F)cc12 (stereo not drawn)
Activity [1]: 163%

O=C(CCCN1CCC(N2CCCCC2)CC1)Nc1ccc(Sc2c(O)nc3ccc(C(F)(F)F)cc3c2-c2cc(Cl)ccc2O)cc1
Activity [1]: 268%
Relaxation [2]: 28%
